What all share (assay type): cell-based, human
The subject of assay [1] is breast adenocarcinoma (MCF7) cells. The assay is described as follows: Antiproliferative MTT assay, MCF-7. The settings on record: for IC50: Homo sapiens, MCF7, 72 h incubation, MTT, mean ± SD; for SI (MCF-7): SI = [IC50 HFF]/[IC50 MCF-7]. Here is the method:
(§1) The human ATCC tumor cell lines breast adenocarcinoma (MCF7), colorectal carcinoma (HT-29), pancreatic ductal adenocarcinoma (CFPAC-1), hepatocellular carcinoma (HepG2), and normal skin fibroblasts (HFF) derived from ATCC (American Type Culture Collection) were cultured in Dulbecco’s Modified Eagle Medium (DMEM) or Minimum Essential Medium (MEM) supplemented with 10% fetal bovine serum (FBS), 2 mM L-glutamine, 100 U/mL penicillin, and 100 µg/mL streptomycin (Lonza, Basel, Switzerland) in a humidified atmosphere with 5% CO2 at 37 °C. For the experiment, carcinoma cell lines and normal human cell lines were seeded in 96-well microtiter plates at a density of 3000 cells per well and 5000 cells per well, respectively, depending on the doubling time of the specific cell line. The test substances were then added at fivefold, tenfold dilutions (0.01 to 100 µM), freshly prepared in the growth medium on the day of testing, and incubated for a further 72 h. After 72 h of incubation, the growth rate of the cells was determined using the MTT assay according to the manufacturer’s guidelines. […] The IC50 values were calculated from the dose–response curves using linear regression analysis. The experiment was performed in tetraplicates in two individual experiments.
(§2) Newly synthesized compounds were evaluated for their cytotoxic activity in vitro against four human cancer cell lines, including human breast adenocarcinoma (MCF-7), ductal pancreatic adenocarcinoma (CFPAC-1), colorectal carcinoma (HT-29), and hepatocellular carcinoma (HepG2), as well as on non-cancerous skin fibroblasts (HFF-1), to check for non-specific toxicity. Furthermore, 5-Fluorouracil (5-FU) was used as a reference drug. The results are expressed as 50% inhibitory concentration (IC50) values and are listed in Table 2, Table 3, Table 4 and Table 5.
On the technique in general: Tetrazolium dyes change colour on reduction, which living cells bring about.

In assay [2] the test system is pancreatic ductal adenocarcinoma (CFPAC-1) cells. Briefly: Antiproliferative MTT assay, CFPAC-1. The note with it: for IC50: Homo sapiens, CFPAC-1, 72 h, 72 h incubation, MTT, mean ± SD; for SI (CFPAC-1): SI = [IC50 HFF]/[IC50 CFPAC-1]. As to the method: as §1, §2
Assay [3] relates to colorectal carcinoma (HT-29) cells. Briefly: Antiproliferative MTT assay, HT-29. The note with it: for IC50: Homo sapiens, HT-29, 72 h, 72 h incubation, MTT, mean ± SD; for SI (HT-29): SI = [IC50 HFF]/[IC50 HT-29]. Here is the method: as §1, §2
Assay [4] deals with hepatocellular carcinoma (HepG2) cells. Briefly: Antiproliferative MTT assay, HepG2. The note with it: for IC50: Homo sapiens, HepG2, 72 h, 72 h incubation, MTT, mean ± SD; for SI (HepG2): SI = [IC50 HFF]/[IC50 HepG2]. Here is the method: as §1, §2
Assay [5] relates to normal skin fibroblasts (HFF-1). Briefly: Cytotoxicity MTT assay, normal skin fibroblasts. The settings on record: Homo sapiens, HFF-1, 72 h, 72 h incubation, mean ± SD. Here is the method: as §1, §2

Results on 17 molecules are retold here after paper PMC11940194, “Synthesis, Antiproliferative Activity, and ADME Profiling of Novel Racemic and Optically Pure Aryl-Substituted Purines and Purine Bioisosteres” (Biomolecules, 2025).

As a reminder, the IC50 is the concentration at which inhibition is half-maximal.

As to `OC(Cn1cc(Cn2cnc3c(Cl)ncnc32)nn1)c1ccc(Cl)cc1` (centres unmarked) [Compound 38b, 6-Chloro-9-((1-(2-hydroxy-2-(4-chlorophenyl)ethyl)-1H-1,2,3-triazol-4-yl)methyl)-9H-purine], the IC50 in assay [1] came to 51 ± 8.9 µM; in assay [2], 36 ± 8.2 µM; in assay [3], 56 ± 2.8 µM; in assay [4] it was 49 ± 13.3 µM; in assay [5] it was 31 ± 5.3 µM. Moreover, in assay [3], the “SI (HT-29)” value is recorded as 0.6. Also, the “SI (HepG2)” value in assay [4] was determined as 0.6.
Consider `OCC(c1ccccc1)n1cc(Cn2ccc3c(Cl)ncnc32)nn1` (centres unmarked) [Compound 41a, 4-Chloro-7-((1-(2-hydroxy-1-phenylethyl)-1H-1,2,3-triazol-4-yl)methyl)-7H-pyrrolo[2,3-d]pyrimidine], for which the IC50 in assay [1] worked out at 39 ± 7.1 µM; in assay [2], 33 ± 4.5 µM; in assay [3] it was 33 ± 3.2 µM; in assay [4] it was 38 ± 1.8 µM; in assay [5], 62 ± 23.3 µM. The “SI (MCF-7)” value in assay [1] is recorded as 1.6. Besides, the “SI (CFPAC-1)” value in assay [2] is recorded as 1.9.
Turning to `OC(Cn1cc(Cn2ccc3c(Cl)ncnc32)nn1)c1ccccc1` (centres unmarked) [Compound 41b, 4-Chloro-7-((1-(2-hydroxy-2-phenylethyl)-1H-1,2,3-triazol-4-yl)methyl)-7H-pyrrolo[2,3-d]pyrimidine], the IC50 in assay [1] was 44 ± 17.4 µM; in assay [2], 49 ± 11.3 µM; in assay [3], 50 ± 1.3 µM; in assay [4], 50 ± 10.2 µM; in assay [5], 44 ± 14.1 µM. The “SI (MCF-7)” value in assay [1] came out at 1.0. In addition, the “SI (CFPAC-1)” value in assay [2] came out at 0.9.
For the molecule `OCC(c1ccc(F)cc1)n1cc(Cn2ccc3c(Cl)ncnc32)nn1` (centres unmarked) [Compound 42a, 4-Chloro-7-((1-(2-hydroxy-1-(4-fluorophenyl)ethyl)-1H-1,2,3-triazol-4-yl)methyl)-7H-pyrrolo[2,3-d]pyrimidine], the IC50 came out at 39 ± 16.9 µM in assay [1]; 36 ± 2.2 µM in assay [2]; 39 ± 1.9 µM in assay [3]; 47 ± 13.5 µM in assay [4]; 51 ± 16.5 µM in assay [5]. Also, in assay [1], the “SI (MCF-7)” value amounted to 1.3. Besides, the “SI (CFPAC-1)” value in assay [2] was determined as 1.4.
Take `OC(Cn1cc(Cn2ccc3c(Cl)ncnc32)nn1)c1ccc(F)cc1` (centres unmarked) [Compound 42b, 4-Chloro-7-((1-(2-hydroxy-2-(4-fluorophenyl)ethyl)-1H-1,2,3-triazol-4-yl)methyl)-7H-pyrrolo[2,3-d]pyrimidine]: the IC50 stood at 45 ± 5.7 µM in assay [1]; 34 ± 3.2 µM in assay [2]; 49 ± 14.6 µM in assay [3]; 38 ± 11 µM in assay [4]; 51 ± 3.6 µM in assay [5]. The “SI (MCF-7)” value in assay [1] is given as 1.1. Besides, the “SI (CFPAC-1)” value in assay [2] was determined as 1.5.
For the molecule `OCC(c1ccc(Cl)cc1)n1cc(Cn2ccc3c(Cl)ncnc32)nn1` (centres unmarked) [Compound 43a, 4-Chloro-7-((1-(2-hydroxy-1-(4-chlorophenyl)ethyl)-1H-1,2,3-triazol-4-yl)methyl)-7H-pyrrolo[2,3-d]pyrimidine], the IC50 in assay [1] was determined as 24 ± 8.8 µM; in assay [3], 33 ± 6.1 µM; in assay [4], 33 ± 4.2 µM; in assay [5] it was 41 ± 16.3 µM. For the same molecule, in assay [1], the “SI (MCF-7)” value worked out at 1.7. Moreover, in assay [2], the “SI (CFPAC-1)” value came out at 5.1.
Consider `OC(Cn1cc(Cn2ccc3c(Cl)ncnc32)nn1)c1ccc(Cl)cc1` (centres unmarked) [Compound 43b, 4-Chloro-7-((1-(2-hydroxy-2-(4-chlorophenyl)ethyl)-1H-1,2,3-triazol-4-yl)methyl)-7H-pyrrolo[2,3-d]pyrimidine], for which the IC50 in assay [1] amounted to 39 ± 10.1 µM; in assay [2] it was 48 ± 4.9 µM; in assay [3] it was 28 ± 3.8 µM; in assay [4], 46 ± 2.2 µM; in assay [5], 32 ± 14.1 µM. For the same molecule, the “SI (MCF-7)” value in assay [1] was 0.8. Also, in assay [2], the “SI (CFPAC-1)” value worked out at 0.7.
Regarding `OCC(c1ccc(F)cc1)n1cc(Cn2cnc3c(Cl)nccc32)nn1` (centres unmarked) [Compound 47a, 4-Chloro-1-((1-(2-hydroxy-1-(4-fluorophenyl)ethyl)-1H-1,2,3-triazol-4-yl)methyl)-1H-imidazo[4,5-c]pyridine], the IC50 in assay [1] was 63 ± 8.4 µM; in assay [2] it was 51 ± 6.5 µM; in assay [3], more than 100 µM; in assay [4], more than 100 µM; in assay [5], 75 ± 14.2 µM.
Regarding `OC(Cn1cc(Cn2cnc3c(Cl)nccc32)nn1)c1ccc(F)cc1` (centres unmarked) [Compound 47b, 4-Chloro-1-((1-(2-hydroxy-2-(4-fluorophenyl)ethyl)-1H-1,2,3-triazol-4-yl)methyl)-1H-imidazo[4,5-c]pyridine], the IC50 in assay [1] is 21 ± 2.6 µM; in assay [2] it was 18 ± 0.8 µM; in assay [3] it was 65 ± 12.6 µM; in assay [4] it was 55 ± 8.8 µM; in assay [5], 18 ± 2.9 µM. Further, in assay [4], the “SI (HepG2)” value came to 0.3.
`OCC(c1ccc(Cl)cc1)n1cc(Cn2cnc3c(Cl)nccc32)nn1` (centres unmarked) [Compound 48a, 4-Chloro-1-((1-(2-hydroxy-1-(4-chlorophenyl)ethyl)-1H-1,2,3-triazol-4-yl)methyl)-1H-imidazo[4,5-c]pyridine]: the 50% inhibitory concentration (IC50) is 96 ± 1.8 µM in assay [1]; more than 100 µM in assay [2]; more than 100 µM in assay [3]; more than 100 µM in assay [4]; more than 100 µM in assay [5].
On to `OC(Cn1cc(Cn2cnc3c(Cl)nccc32)nn1)c1ccc(Cl)cc1` (centres unmarked) [Compound 48b, 4-Chloro-1-((1-(2-hydroxy-2-(4-chlorophenyl)ethyl)-1H-1,2,3-triazol-4-yl)methyl)-1H-imidazo[4,5-c]pyridine], for which the IC50 in assay [1], in assay [2], in assay [3], in assay [4] and in assay [5] was more than 100 µM each time.
On to `O[C@@H](Cn1cc(Cn2cnc3c(Cl)ncnc32)nn1)c1ccccc1` [Compound (R)-36b, (R)-6-Chloro-9-((1-(2-hydroxy-2-phenylethyl)-1H-1,2,3-triazol-4-yl)methyl)-9H-purine], for which the IC50 was 61 ± 3.7 µM in assay [1]; 66 ± 3.2 µM in assay [2]; 86 ± 11.6 µM in assay [3]; 57 ± 9.7 µM in assay [4]; more than 100 µM in assay [5]. Further, the “SI (HT-29)” value in assay [3] is reported as more than 1.2. In addition, the “SI (HepG2)” value in assay [4] is more than 1.8.
Turning to `O[C@@H](Cn1cc(Cn2cnc3c(Cl)ncnc32)nn1)c1ccc(F)cc1` [Compound (R)-37b, (R)-6-Chloro-9-((1-(2-hydroxy-2-(4-fluorophenyl)ethyl)-1H-1,2,3-triazol-4-yl)methyl)-9H-purine], the IC50 is more than 100 µM in assay [1]; more than 100 µM in assay [2]; more than 100 µM in assay [3]; 64 ± 3.1 µM in assay [4]; 35 ± 5.5 µM in assay [5]. Also, the “SI (HepG2)” value in assay [4] is recorded as 0.6.
On to `O[C@@H](Cn1cc(Cn2cnc3c(Cl)ncnc32)nn1)c1ccc(Cl)cc1` [Compound (R)-38b], for which the IC50 in assay [1] was 64 ± 4.8 µM; in assay [2], 60 ± 10.3 µM; in assay [3], 51 ± 17.8 µM; in assay [4] it was 39 ± 10.5 µM; in assay [5] it was 31 ± 13.4 µM. Besides, the “SI (HT-29)” value in assay [3] is recorded as 0.6. In addition, the “SI (HepG2)” value in assay [4] was 0.8.
Regarding `O[C@@H](Cn1cc(Cn2ccc3c(Cl)ncnc32)nn1)c1ccccc1` [Compound (R)-41b, (R)-4-Chloro-7-((1-(2-hydroxy-2-phenylethyl)-1H-1,2,3-triazol-4-yl)methyl)-7H-pyrrolo[2,3-d]pyrimidine], the IC50 turned out to be 46 ± 2.7 µM in assay [1]; 58 ± 12.1 µM in assay [2]; 46 ± 2.3 µM in assay [3]; 52 ± 2.7 µM in assay [4]; 23 ± 5.8 µM in assay [5]. Also, the “SI (MCF-7)” value in assay [1] is 0.5. In addition, the “SI (CFPAC-1)” value in assay [2] came out at 0.4.
`O[C@@H](Cn1cc(Cn2ccc3c(Cl)ncnc32)nn1)c1ccc(F)cc1` [Compound (R)-42b, (R)-4-Chloro-7-((1-(2-hydroxy-2-(4-fluorophenyl)ethyl)-1H-1,2,3-triazol-4-yl)methyl)-7H-pyrrolo[2,3-d]pyrimidine]: the IC50 in assay [1] turned out to be 60 ± 1.2 µM; in assay [2], 20 ± 0.9 µM; in assay [3], 27 ± 1.4 µM; in assay [4] it was 32 ± 6.04 µM; in assay [5], 24 ± 2.4 µM. In assay [1], the “SI (MCF-7)” value came out at 0.4. Further, the “SI (CFPAC-1)” value in assay [2] stood at 1.2.
On to `O[C@@H](Cn1cc(Cn2ccc3c(Cl)ncnc32)nn1)c1ccc(Cl)cc1` [Compound (R)-43b, (R)-4-Chloro-7-((1-(2-hydroxy-2-(4-chlorophenyl)ethyl)-1H-1,2,3-triazol-4-yl)methyl)-7H-pyrrolo[2,3-d]pyrimidine], for which the IC50 in assay [1] was 35 ± 1.9 µM; in assay [2], 32 ± 16.1 µM; in assay [3] it was 48 ± 4.8 µM; in assay [4] it was 26 ± 8.2 µM; in assay [5], 20 ± 6.5 µM. In assay [1], the “SI (MCF-7)” value was determined as 0.6. For the same molecule, in assay [2], the “SI (CFPAC-1)” value is 0.6.
